Results published in ChEMBL document CHEMBL1134003, “7-Pyrrolidinyl- and 7-piperidinyl-5-aryl-pyrrolo[2,3-d]pyrimidines--potent inhibitors of the tyrosine kinase c-Src” (Bioorg Med Chem Lett, 2001).

How the values were obtained:
[1] = molecular target: Proto-oncogene tyrosine-protein kinase Src (Homo sapiens, UniProt P12931); experiment: Inhibition of p60 c-Src tyrosine kinase enzyme activity in liquid-phase tyrosine phosphorylation assay at 830 ng/mL
[2] = molecular target: Proto-oncogene tyrosine-protein kinase Src (Gallus gallus, UniProt P00523); experiment: Concentration required for inhibition of c-Src mediated phosphorylation of Fak in IC8.1 fibroblast cell assay; assay type: functional, cell-based
[3] = molecular target: T1, Tyrosine-protein kinase ABL (Homo sapiens, UniProt P00519+P42684)
Description: Concentration required for inhibition of v-Abl receptor by tyrosine kinase enzyme assay

[4] = molecular target: T2, Epidermal growth factor receptor (Homo sapiens, UniProt P00533); experiment: Concentration required for inhibition of epidermal growth factor receptor (EGF-R) by tyrosine kinase enzyme activity
[5] = molecular target: T2, Epidermal growth factor receptor; experiment: Inhibition of autophosphorylation of epidermal growth factor receptor (EGF-R) in a cellular assay
[6] = molecular target: T1, Tyrosine-protein kinase ABL; experiment: Inhibition of v-Abl receptor tyrosine kinase enzyme activity; assay type: protein assay
[7] = molecular target: T2, Epidermal growth factor receptor; experiment: Inhibition of epidermal growth factor receptor (EGF-R)

Chain of Proto-oncogene tyrosine-protein kinase Src (Homo sapiens, UniProt P12931) (P12931 2-536 limits assumed): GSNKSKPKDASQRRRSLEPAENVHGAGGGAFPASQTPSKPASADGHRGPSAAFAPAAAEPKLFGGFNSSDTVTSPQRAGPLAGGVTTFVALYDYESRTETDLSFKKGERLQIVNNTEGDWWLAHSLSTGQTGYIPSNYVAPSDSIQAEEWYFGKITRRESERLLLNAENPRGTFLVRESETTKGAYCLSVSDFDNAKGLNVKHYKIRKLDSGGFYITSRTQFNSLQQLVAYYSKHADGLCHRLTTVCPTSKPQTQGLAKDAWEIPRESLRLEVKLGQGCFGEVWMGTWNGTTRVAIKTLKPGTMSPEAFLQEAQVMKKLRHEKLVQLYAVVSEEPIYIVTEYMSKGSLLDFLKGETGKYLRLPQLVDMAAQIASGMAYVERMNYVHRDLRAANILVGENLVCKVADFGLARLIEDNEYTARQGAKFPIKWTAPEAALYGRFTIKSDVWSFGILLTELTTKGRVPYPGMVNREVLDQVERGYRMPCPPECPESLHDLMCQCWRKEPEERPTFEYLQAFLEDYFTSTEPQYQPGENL
T2 sequence (P00533 whole entry): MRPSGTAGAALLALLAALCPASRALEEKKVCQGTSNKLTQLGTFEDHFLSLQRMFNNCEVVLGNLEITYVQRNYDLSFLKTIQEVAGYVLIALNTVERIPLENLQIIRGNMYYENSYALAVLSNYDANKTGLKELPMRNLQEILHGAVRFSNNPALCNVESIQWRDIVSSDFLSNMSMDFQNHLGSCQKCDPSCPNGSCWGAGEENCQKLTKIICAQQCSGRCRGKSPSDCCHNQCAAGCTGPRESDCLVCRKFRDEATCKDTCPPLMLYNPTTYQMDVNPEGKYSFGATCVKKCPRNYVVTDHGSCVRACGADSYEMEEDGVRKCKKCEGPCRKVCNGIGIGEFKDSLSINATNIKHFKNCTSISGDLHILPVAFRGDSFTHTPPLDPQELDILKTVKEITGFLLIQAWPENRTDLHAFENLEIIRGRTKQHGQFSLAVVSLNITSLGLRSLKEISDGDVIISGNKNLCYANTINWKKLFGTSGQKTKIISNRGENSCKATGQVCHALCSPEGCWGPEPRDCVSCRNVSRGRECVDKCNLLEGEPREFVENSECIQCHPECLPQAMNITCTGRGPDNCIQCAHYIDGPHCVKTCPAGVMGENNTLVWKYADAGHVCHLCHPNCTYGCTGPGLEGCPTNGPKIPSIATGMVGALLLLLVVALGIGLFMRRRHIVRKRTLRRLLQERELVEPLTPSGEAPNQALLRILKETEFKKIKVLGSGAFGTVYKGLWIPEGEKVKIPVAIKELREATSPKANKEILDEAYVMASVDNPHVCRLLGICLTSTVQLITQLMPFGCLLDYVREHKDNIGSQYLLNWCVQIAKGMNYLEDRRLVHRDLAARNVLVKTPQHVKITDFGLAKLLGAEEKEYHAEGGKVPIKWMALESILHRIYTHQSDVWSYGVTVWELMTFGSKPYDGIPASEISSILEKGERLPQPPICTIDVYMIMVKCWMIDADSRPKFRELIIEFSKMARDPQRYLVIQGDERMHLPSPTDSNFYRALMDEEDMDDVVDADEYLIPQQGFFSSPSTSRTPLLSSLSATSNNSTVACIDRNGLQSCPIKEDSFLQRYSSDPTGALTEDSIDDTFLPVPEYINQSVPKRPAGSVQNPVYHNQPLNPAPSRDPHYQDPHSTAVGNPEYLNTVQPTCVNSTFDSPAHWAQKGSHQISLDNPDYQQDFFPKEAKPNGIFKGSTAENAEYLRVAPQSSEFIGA

SMILES | IC50 [1] | IC50 [2] | IC50 [3] | IC50 [4] | IC50 [5] | IC50 [6] | IC50 [7]
CC(C)(C)OC(=O)N1C[C@H](n2cc(-c3ccccc3)c3c(N)ncnc32)C[C@@H]1CO | 2000 nM | – | – | – | – | – | –
Nc1ncnc2c1c(-c1ccccc1)cn2[C@H]1CN[C@@H](CO)C1 | 130 nM | – | – | – | – | – | –
COc1cccc(-c2cn(C3CCN(C(=O)OC(C)(C)C)C3)c3ncnc(N)c23)c1 (stereo not drawn) | 270 nM | 4400 nM | 2400 nM | 2100 nM | – | – | –
Nc1ncnc2c1c(-c1ccccc1)cn2C1CCNC1 (stereo not drawn) | 230 nM | – | – | – | – | – | –
COC(=O)CN1CCC(n2cc(-c3cccc(OC)c3)c3c(N)ncnc32)CC1 | 84 nM | 2800 nM | 1000 nM | – | – | – | –
CCOC(=O)C[C@H]1C[C@H](n2cc(-c3ccccc3)c3c(N)ncnc32)CN1C(=O)OC(C)(C)C | 410 nM | – | – | – | – | – | –
CCOC(=O)C[C@H]1C[C@@H](n2cc(-c3ccccc3)c3c(N)ncnc32)CN1C(=O)OC(C)(C)C | 5000 nM | – | – | – | – | – | –
CCOC(=O)C[C@H]1C[C@H](n2cc(-c3ccc(O)cc3)c3c(N)ncnc32)CN1 | 100 nM | – | – | – | – | – | –
COC(=O)CN1CCC(n2cc(-c3cccc(O)c3)c3c(N)ncnc32)CC1 | < 1 nM | 400 nM | 56 nM | 800 nM | > 10000 nM | – | –
CCOC(=O)C[C@H]1C[C@H](n2cc(-c3ccccc3)c3c(N)ncnc32)CN1 | 600 nM | – | – | – | – | – | –
COc1ccc(-c2cn(C3CCN(C(=O)OC(C)(C)C)C3)c3ncnc(N)c23)cc1 (stereo not drawn) | 400 nM | 400 nM | – | – | – | – | –
COc1ccc(-c2cn(C3CCNC3)c3ncnc(N)c23)cc1 (stereo not drawn) | 300 nM | – | – | – | – | – | –
CCOC(=O)C[C@H]1C[C@@H](n2cc(-c3ccc(O)cc3)c3c(N)ncnc32)CN1C(=O)OC(C)(C)C | 300 nM | – | – | – | – | – | –
CC(C)(C)OC(=O)N1C[C@@H](n2cc(-c3ccccc3)c3c(N)ncnc32)C[C@@H]1CO | 130 nM | – | – | – | – | – | –
CC(C)(C)OC(=O)N1CCC(n2cc(-c3ccccc3)c3c(N)ncnc32)C1 (stereo not drawn) | 180 nM | > 5000 nM | – | 8300 nM | – | – | –
COC(=O)CN1CCC(n2cc(-c3cccc(O)c3)c3c(N)ncnc32)C1 (stereo not drawn) | 3 nM | 700 nM | 54 nM | 740 nM | > 10000 nM | – | –
COc1cccc(-c2cn(C3CCN(CC(=O)N(C)C)CC3)c3ncnc(N)c23)c1 | 67 nM | > 5000 nM | – | 750 nM | – | – | –
Nc1ncnc2c1c(-c1ccccc1)cn2[C@@H]1CN[C@@H](CO)C1 | 300 nM | – | – | – | – | – | –
CC(C)(C)OC(=O)N1C[C@H](n2cc(-c3ccc(O)cc3)c3c(N)ncnc32)C[C@@H]1CO | 350 nM | – | – | – | – | – | –
Nc1ncnc2c1c(-c1ccc(O)cc1)cn2C1CN[C@@H](CO)C1 (single isomer, unassigned) | 95 nM | > 5000 nM | – | – | – | – | –

Now from value to compound:

IC50 [1] | IC50 [2] | IC50 [3] | IC50 [4] | IC50 [5] | IC50 [6] | IC50 [7] | SMILES
6 nM | 600 nM | 360 nM | 295 nM | 7800 nM | – | – | COc1cccc(-c2cn(C3CCN(CCN(C)CCO)CC3)c3ncnc(N)c23)c1
5 nM | 3100 nM | 58 nM | 2200 nM | > 10000 nM | – | – | CC(C)(C)OC(=O)N1CCC(n2cc(-c3cccc(O)c3)c3c(N)ncnc32)C1 (stereo not drawn)
24 nM | 3300 nM | – | – | – | – | – | CC(C)(C)OC(=O)N1C[C@@H](n2cc(-c3ccc(O)cc3)c3c(N)ncnc32)C[C@@H]1CO
22 nM | 700 nM | 550 nM | 350 nM | – | – | – | COc1cccc(-c2cn(C3CCN(CC(N)=O)CC3)c3ncnc(N)c23)c1
27 nM | 1400 nM | 1030 nM | 900 nM | > 10000 nM | – | – | COc1cccc(-c2cn(C3CCN(CCO)CC3)c3ncnc(N)c23)c1
53 nM | > 5000 nM | 1400 nM | 1120 nM | – | – | – | COc1cccc(-c2cn(C3CCNC3)c3ncnc(N)c23)c1 (stereo not drawn)
1 nM | 600 nM | 98 nM | 2540 nM | > 10000 nM | – | – | Nc1ncnc2c1c(-c1cccc(O)c1)cn2C1CCN(CCO)CC1
3 nM | – | 120 nM | 500 nM | > 10000 nM | – | – | CN(C)C(=O)CN1CCC(n2cc(-c3cccc(O)c3)c3c(N)ncnc32)CC1
5 nM | 3300 nM | – | – | – | – | – | CCOC(=O)C[C@H]1C[C@@H](n2cc(-c3ccc(O)cc3)c3c(N)ncnc32)CN1
6 nM | 800 nM | 290 nM | 1530 nM | > 10000 nM | – | – | Nc1ncnc2c1c(-c1cccc(O)c1)cn2C1CCNC1 (stereo not drawn)
15 nM | 290 nM | – | – | > 10000 nM | 310 nM | 310 nM | COCCNCCN1CCC(n2cc(-c3cccc(OC)c3)c3c(N)ncnc32)CC1
1 nM | 800 nM | 210 nM | 170 nM | > 10000 nM | – | – | NC(=O)CN1CCC(n2cc(-c3cccc(O)c3)c3c(N)ncnc32)CC1
47 nM | 500 nM | 500 nM | – | > 10000 nM | – | 930 nM | COCCN(C)CCN1CCC(n2cc(-c3cccc(OC)c3)c3c(N)ncnc32)CC1
35 nM | 700 nM | – | – | – | – | – | CCOC(=O)C[C@H]1C[C@H](n2cc(-c3ccc(O)cc3)c3c(N)ncnc32)CN1C(=O)OC(C)(C)C
15 nM | > 5000 nM | – | – | – | – | – | CCOC(=O)C[C@H]1C[C@@H](n2cc(-c3ccccc3)c3c(N)ncnc32)CN1
37 nM | 2700 nM | 2800 nM | 2670 nM | – | – | – | Nc1ncnc2c1c(-c1ccc(O)cc1)cn2C1CCNC1 (stereo not drawn)
38 nM | > 5000 nM | 700 nM | 440 nM | – | – | – | COc1cccc(-c2cn(C3CCN(CC(N)=O)C3)c3ncnc(N)c23)c1 (stereo not drawn)
50 nM | > 5000 nM | 590 nM | – | – | – | – | COC(=O)CN1CCC(n2cc(-c3cccc(OC)c3)c3c(N)ncnc32)C1 (stereo not drawn)
4 nM | – | 150 nM | 400 nM | > 10000 nM | – | – | NC(=O)CN1CCC(n2cc(-c3cccc(O)c3)c3c(N)ncnc32)C1 (stereo not drawn)
8 nM | 400 nM | – | – | – | – | – | CC(C)(C)OC(=O)N1CCC(n2cc(-c3ccc(O)cc3)c3c(N)ncnc32)C1 (stereo not drawn)
50 nM | > 5000 nM | – | – | – | – | – | Nc1ncnc2c1c(-c1ccc(O)cc1)cn2[C@H]1CNC(CO)C1 (single isomer, unassigned)
